According to the NIST ThermoML archive (doi:10.1016/j.jct.2015.09.028):

Key:
[1] = 93 kPa, Liquid; for viscosity: Concentric cylinders viscometry; for mass density: Vibrating tube method
[2] = molar heat capacity at constant pressure; conditions: Liquid, Flow calorimetry

c1ccc(Oc2ccccc2)cc1 [diphenyl ether]
[1]
Conditions	mass density [kg/m3]	viscosity [mPa·s]
303.15 K	1065.5	3.33
308.15 K	1061.2	2.96
313.15 K	1056.9	2.65
323.15 K	1048.2	2.17
333.15 K	1039.6	1.82
343.15 K	1030.9	1.54
353.15 K	1022.3	1.33
363.15 K	1013.7	1.16
373.15 K	1005.2	1.03

molar heat capacity at constant pressure [J/K/mol], [2]
Conditions	100 kPa	5000 kPa	10000 kPa	15000 kPa	20000 kPa	25000 kPa
313.15 K	274.37	273.52	273.18	272.5	272.16	–
333.15 K	286.97	285.95	284.93	284.59	283.39	282.71
353.15 K	299.05	298.03	296.84	296.33	295.48	294.63
